Data published in PMC6273621, “Synthesis and the Biological Activity of Phosphonylated 1,2,3-Triazolenaphthalimide Conjugates” (Molecules, 2016).
Where two headings read alike, the source gives them in different places.

Key:
TK+ VZV strain = assay: microbe, parasite or virus in culture; type: cell-based, varicella-zoster virus (VZV) strain Oka; conditions: Human alphaherpesvirus 3, HEL, read-out: Antiviral Activity EC50, TK+ VZV Strain, HEL cell cultures; concentration reducing virus plaque formation by 50%
TK− VZV strain = assay: microbe, parasite or virus in culture; type: cell-based, varicella-zoster virus (VZV) strain 07−1; conditions: Human alphaherpesvirus 3, HEL, read-out: Antiviral Activity EC50, TK− VZV Strain, HEL cell cultures; concentration reducing virus plaque formation by 50%
HEL cells = assay: Cytotoxicity, cell morphology (MCC) in HEL cells; type: cell-based, human; conditions: minimum cytotoxic concentration causing microscopically detectable alteration of cell morphology
Description: The cytotoxicity of the tested compounds toward the uninfected host cells was defined as the minimum cytotoxic concentration (MCC) that causes a microscopically detectable alteration of normal cell morphology.

[1] = tested on: murine leukemia (L1210) cells; assay: Cytostatic activity, L1210 cell proliferation; type: cell-based; conditions: Mus musculus, read-out: IC50 L1210
Description: (§1) All assays were performed in 96-well microtiter plates. To each well were added (5–7.5) × 10^4 tumor cells and a given amount of the test compound. The cells were allowed to proliferate for 48 h (murine leukemia L1210 cells) or 72 h (human lymphocytic CEM and human cervix carcinoma HeLa cells) at 37 °C in a humidified CO2-controlled atmosphere. At the end of the incubation period, the cells were counted in a Coulter counter.

[2] = tested on: human T-lymphocyte (CEM) cells; assay: Cytostatic activity, CEM cell proliferation; type: cell-based; conditions: CCRF-CEM, 72 h, read-out: IC50 CEM
Description: as §1

[3] = tested on: human cervix carcinoma cells (HeLa); assay: Cytostatic activity, HeLa cell proliferation; type: cell-based; conditions: 72 h, read-out: IC50 HeLa
Description: as §1

[4] = tested on: human dermal microvascular endothelial HMEC-1 cells; assay: Cytostatic activity, HMEC-1 cell proliferation; type: cell-based
[5] = L1210, cell proliferation, 48 h
[6] = HMEC-1, cell proliferation, read-out: IC50 HMEC-1

SMILES | EC50 (TK+ VZV strain) | EC50 (TK− VZV strain) | Cytotoxicity, Cell Morphology (MCC) (HEL cells) | IC50 [1, 5] | IC50 ([2]; cell proliferation) | IC50 ([3]; cell proliferation) | IC50 [4, 6] | melting point | IC50 ([1]; L1210, 48 h) | IC50 [2] | IC50 [3] | IC50 ([4]; HMEC-1, read-out: IC50 HMEC-1)
CN(C)CCN1C(=O)c2cccc3cc(N)cc(c23)C1=O [Amonafide, reference compound] | 5.36 µM | 7.82 µM | 20 μM | 1 ± 0.4 µM | 0.54 ± 0.5 µM | 2 ± 1.2 µM | 0.31 µM |  |  |  |  | 
C#CCN1C(=O)c2cccc3cccc(c23)C1=O [Compound 7, 2-(Prop-2-yn-1-yl)-1H-benzo[de]isoquinoline-1,3(2H)-dione] |  |  |  | > 250 µM | 206 ± 42 µM | 48 ± 8 µM | 138 ± 38 µM | 239 to 240 °C |  |  |  | 
CCOP(=O)(Cn1cc(CN2C(=O)c3cccc4cccc(c34)C2=O)nn1)OCC [Compound 14a] |  |  |  |  |  |  |  | 110 to 111 °C | > 250 µM | 187 ± 25 µM | > 250 µM | > 250 µM
CCOP(=O)(CCn1cc(CN2C(=O)c3cccc4cccc(c34)C2=O)nn1)OCC [Compound 14b, Diethyl 2-{4-[(1,3-Dioxo-1H-benzo[de]isoquinolin-2(3H)-yl)methyl]-1H-1,2,3-triazol-1-yl}ethylphosphonate] |  |  |  |  |  |  |  | 63 to 64 °C | > 250 µM | 148 ± 59 µM | 204 ± 65 µM | > 250 µM
CCOP(=O)(CC(O)Cn1cc(CN2C(=O)c3cccc4cccc(c34)C2=O)nn1)OCC (stereo not shown) [Compound 14f, Diethyl 3-{4-[(1,3-Dioxo-1H-benzo[de]isoquinolin-2(3H)-yl)methyl]-1H-1,2,3-triazol-1-yl}-2-hydroxypropylphosphonate] |  |  |  |  |  |  |  | > 260 °C | > 250 µM | 158 ± 4 µM | 168 ± 26 µM | > 250 µM
CCOP(=O)(COCCn1cc(CN2C(=O)c3cccc4cccc(c34)C2=O)nn1)OCC [Compound 14g, Diethyl 2-{4-[(1,3-Dioxo-1H-benzo[de]isoquinolin-2(3H)-yl)methyl]-1H-1,2,3-triazol-1-yl}ethoxy-methylphosphonate] |  |  |  |  |  |  |  | 154 to 155 °C | > 250 µM | 168 ± 29 µM | 215 ± 49 µM | ≥ 250 µM
CCOP(=O)(CNC(=O)Cn1cc(CN2C(=O)c3cccc4cccc(c34)C2=O)nn1)OCC [Compound 14i, Diethyl 2-{4-[(1,3-Dioxo-1H-benzo[de]isoquinolin-2(3H)-yl)methyl]-1H-1,2,3-triazol-1-yl}acetamido-methylphosphonate] |  |  |  |  |  |  |  | 170 to 171 °C | > 250 µM | ≥ 250 µM | > 250 µM | > 250 µM
CCOP(=O)(Cn1cc(CN2C(=O)c3cccc4c(Br)ccc(c34)C2=O)nn1)OCC [Compound 15a, Diethyl {4-[(6-Bromo-1,3-dioxo-1H-benzo[de]isoquinolin-2(3H)-yl)methyl]-1H-1,2,3-triazol-1-yl}methylphosphonate] |  |  |  |  |  |  |  | 158 to 159 °C | 28 ± 1 µM | 60 ± 27 µM | 88 ± 5 µM | 185 ± 40 µM
CCOP(=O)(CCCn1cc(CN2C(=O)c3cccc4c(Br)ccc(c34)C2=O)nn1)OCC [Compound 15c, Diethyl 3-{4-[(6-Bromo-1,3-dioxo-1H-benzo[de]isoquinolin-2(3H)-yl)methyl]-1H-1,2,3-triazol-1-yl}propylphosphonate] |  |  |  |  |  |  |  | 118 to 120 °C | 20 ± 3 µM | 52 ± 34 µM | 62 ± 1 µM | 152 µM
CCOP(=O)(OCC)C(O)Cn1cc(CN2C(=O)c3cccc4c(Br)ccc(c34)C2=O)nn1 (stereo not shown) [Compound 15e, Diethyl 2-{4-[(6-Bromo-1,3-dioxo-1H-benzo[de]isoquinolin-2(3H)-yl)methyl]-1H-1,2,3-triazol-1-yl}-1-hydroxyethylphosphonate] |  |  |  |  |  |  |  | 198 to 200 °C | 42 ± 15 µM | 196 ± 60 µM | > 250 µM | > 250 µM
CCOP(=O)(COCCn1cc(CN2C(=O)c3cccc4c(Br)ccc(c34)C2=O)nn1)OCC [Compound 15g, Diethyl 2-{4-[(6-Bromo-1,3-dioxo-1H-benzo[de]isoquinolin-2(3H)-yl)methyl]-1H-1,2,3-triazol-1-yl}ethoxy-methylphosphonate] |  |  |  |  |  |  |  |  | 24 ± 3 µM | 66 ± 20 µM | 84 ± 16 µM | 152 ± 1 µM
CCOP(=O)(CNC(=O)Cn1cc(CN2C(=O)c3cccc4c(Br)ccc(c34)C2=O)nn1)OCC [Compound 15i, Diethyl 2-{4-[(6-Bromo-1,3-dioxo-1H-benzo[de]isoquinolin-2(3H)-yl)methyl]-1H-1,2,3-triazol-1-yl}acetamido-methylphosphonate] |  |  |  |  |  |  |  | 173 to 174 °C | 31 ± 2 µM | 137 ± 72 µM | > 250 µM | > 250 µM
CCOP(=O)(CNC(=O)Cn1cc(CN2C(=O)c3cccc4cc([N+](=O)[O-])cc(c34)C2=O)nn1)OCC [Compound 16i, Diethyl 2-{4-[(5-Nitro-1,3-dioxo-1H-benzo[de]isoquinolin-2(3H)-yl)methyl]-1H-1,2,3-triazol-1-yl}acetamido-methylphosphonate] |  |  |  |  |  |  |  | 217 to 219 °C | > 250 µM | > 250 µM | 86 ± 6 µM | > 250 µM
CCOP(=O)(Cn1cc(CN2C(=O)c3cccc4cc(N)cc(c34)C2=O)nn1)OCC [Compound 17a, Diethyl {4-[(5-Amino-1,3-dioxo-1H-benzo[de]isoquinolin-2(3H)-yl)methyl]-1H-1,2,3-triazol-1-yl}methylphosphonate] |  |  |  |  |  |  |  |  | 177 ± 76 µM | 214 ± 5 µM | 101 ± 78 µM | 
CCOP(=O)(CCn1cc(CN2C(=O)c3cccc4cc(N)cc(c34)C2=O)nn1)OCC [Compound 17b, Diethyl 2-{4-[(5-Amino-1,3-dioxo-1H-benzo[de]isoquinolin-2(3H)-yl)methyl]-1H-1,2,3-triazol-1-yl}ethylphosphonate] |  |  |  |  |  |  |  |  | > 250 µM | 120 ± 7 µM | 69 ± 12 µM | 
CCOP(=O)(CCCn1cc(CN2C(=O)c3cccc4cc(N)cc(c34)C2=O)nn1)OCC [Compound 17c, Diethyl 3-{4-[(5-Amino-1,3-dioxo-1H-benzo[de]isoquinolin-2(3H)-yl)methyl]-1H-1,2,3-triazol-1-yl}propylphosphonate] |  |  |  |  |  |  |  | 180 to 182 °C | > 250 µM | ≥ 250 µM | ≥ 250 µM | 
CCOP(=O)(CCCCn1cc(CN2C(=O)c3cccc4cc(N)cc(c34)C2=O)nn1)OCC [Compound 17d, Diethyl 4-{4-[(5-Amino-1,3-dioxo-1H-benzo[de]isoquinolin-2(3H)-yl)methyl]-1H-1,2,3-triazol-1-yl}butylphosphonate] |  |  |  |  |  |  |  | 218 to 220 °C | > 250 µM | > 250 µM | 116 ± 60 µM | 
CCOP(=O)(OCC)C(O)Cn1cc(CN2C(=O)c3cccc4cc(N)cc(c34)C2=O)nn1 (stereo not shown) [Compound 17e, Diethyl 2-{4-[(5-Amino-1,3-dioxo-1H-benzo[de]isoquinolin-2(3H)-yl)methyl]-1H-1,2,3-triazol-1-yl}-1-hydroxyethylphosphonate] |  |  |  |  |  |  |  | 170 to 172 °C | > 250 µM | > 250 µM | 72 ± 58 µM | 
CCOP(=O)(CC(O)Cn1cc(CN2C(=O)c3cccc4cc(N)cc(c34)C2=O)nn1)OCC (stereo not shown) [Compound 17f, Diethyl 3-{4-[(5-Amino-1,3-dioxo-1H-benzo[de]isoquinolin-2(3H)-yl)methyl]-1H-1,2,3-triazol-1-yl}-2-hydroxypropylphosphonate] |  |  |  |  |  |  |  | 222 to 224 °C | > 250 µM | > 250 µM | 130 ± 77 µM | 
CCOP(=O)(COCCn1cc(CN2C(=O)c3cccc4cc(N)cc(c34)C2=O)nn1)OCC [Compound 17g, Diethyl 2-{4-[(5-Amino-1,3-dioxo-1H-benzo[de]isoquinolin-2(3H)-yl)methyl]-1H-1,2,3-triazol-1-yl}ethoxy-methylphosphonate] |  |  |  |  |  |  |  | 221 to 223 °C | > 250 µM | > 250 µM | 97 ± 42 µM | 
CCOP(=O)(CCOCCn1cc(CN2C(=O)c3cccc4cc(N)cc(c34)C2=O)nn1)OCC [Compound 17h, Diethyl 2-(2-{4-[(5-Amino-1,3-dioxo-1H-benzo[de]isoquinolin-2(3H)-yl)methyl]-1H-1,2,3-triazol-1-yl}ethoxy)ethylphosphonate] |  |  |  |  |  |  |  | 180 to 183 °C | 142 ± 2 µM | 109 ± 3 µM | 66 ± 3 µM | 
CCOP(=O)(CNC(=O)Cn1cc(CN2C(=O)c3cccc4cc(N)cc(c34)C2=O)nn1)OCC [Compound 17i, Diethyl 2-{4-[(5-Amino-1,3-dioxo-1H-benzo[de]isoquinolin-2(3H)-yl)methyl]-1H-1,2,3-triazol-1-yl}acetamido-methylphosphonate] |  |  |  |  |  |  |  | 222 to 224 °C | > 250 µM | > 250 µM | 112 ± 58 µM | 
